Assay results: patent US7728028B2, “Substituted imidazoline compounds” (Gruenenthal GmbH, priority 2005, dated 2010)

The compounds below were run against T1, human μ-opiate receptor (Homo sapiens, UniProt P35372) (assay: Affinity for the human μ-opiate receptor ([3H]-naloxone displacement, SPA)). Details: Table 1, aldehydes; test substance 1 μmole/l; inhibition of specific [3H]-naloxone binding; CHO-K1 membranes; read-out: μ-Opioid receptor, % inhibition [1 μM].
T1 construct: purchased PerkinElmer Life Sciences, Zaventem, Belgium RB-HOM; host or cells: CHO-K1 cells (recombinant expression; membrane preparation)
T1 sequence (P35372 whole entry): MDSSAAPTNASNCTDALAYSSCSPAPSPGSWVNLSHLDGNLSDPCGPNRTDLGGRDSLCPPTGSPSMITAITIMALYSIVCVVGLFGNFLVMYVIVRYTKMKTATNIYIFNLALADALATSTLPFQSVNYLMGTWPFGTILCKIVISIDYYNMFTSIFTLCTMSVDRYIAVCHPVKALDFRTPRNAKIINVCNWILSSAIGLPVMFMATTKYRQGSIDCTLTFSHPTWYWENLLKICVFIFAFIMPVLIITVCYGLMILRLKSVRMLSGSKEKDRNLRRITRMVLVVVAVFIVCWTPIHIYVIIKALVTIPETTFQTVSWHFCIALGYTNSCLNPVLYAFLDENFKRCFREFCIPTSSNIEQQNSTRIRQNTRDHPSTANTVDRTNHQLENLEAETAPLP
Procedure: Investigations on the Efficacy of the Compounds According to the Invention Method for Determining the Affinity for the Human μ-Opiate Receptor
The receptor affinity for the human μ-opiate receptor is determined in a homogeneous batch in microtiter plates. For this purpose dilution series of the substances to be tested are incubated with a receptor membrane preparation (15-40 μg protein/250 μl incubation batch) of CHO-K1 cells, which express the human μ-opiate receptor (RB-HOM receptor membrane preparation from PerkinElmer Life Sciences, Zaventem, Belgium), in the presence of 1 nmole/l of the radioactive ligand [^3H]-naloxone (NET719, PerkinElmer Life Sciences company, Zaventem, Belgium) and 1 mg WGA-SPA beads (wheat germ agglutinin SPA beads from Amersham/Pharmacia, Freiburg, Germany) in a total volume of 250 μl for 90 minutes at room temperature. 50 mmole/l of Tris-HCl supplemented with 0.06% bovine serum albumin is used as incubation buffer. In order to determine the non-specific binding, 100 μmole/l of naloxone is additionally added. After the end of the 90 minutes' incubation time the microtiter plates are centrifuged for 20 minutes at 1000 g and the radioactivity is measured in a beta counter (Microbeta-Trilux, PerkinElmer Wallac, Freiburg, Germany). The percentage displacement of the radioactive ligand from its binding to the human μ-opiate receptor at a concentration of the test substances of 1 μmole/l is determined and is given as percentage inhibition of the specific binding.
Compound CN(C)C(c1cccs1)C1CCC(CC=O)CC1 (centres unmarked) [Example 10d, {4-[dimethylamino-thiophen-2-yl-methyl]-cyclohexyl}-acetaldehyde] has an inhibition at 1 µM of 79%.

Same assay, conditions: Table 2, Examples 11-161; test substance 1 μmole/l; inhibition of specific [3H]-naloxone binding; CHO-K1 membranes; read-out: μ-Opioid receptor, % inhibition [1 μM]
CCCN1C=NC(CCC)(C(=O)OC)C1CC1CCC(C(CCc2ccccc2)N(C)C)CC1 (centres unmarked) [Example 120, 5-[4-(1-dimethylamino-3-phenylpropyl)-cyclohexylmethyl]-1,4-dipropyl-4,5-dihydro-1H-imidazole-imidazole-4-carboxylic acid methyl ester] showed an inhibition at 1 µM of 62%. In the case of COC(=O)C1(Cc2ccc(Cl)cc2)N=CN(CCc2ccccc2)C1CC1CCC(C(c2ccc(Cl)cc2)N(C)C)CC1 (centres unmarked) [Example 44, 4-(4-chlorobenzyl)-5-{4-[(4-chlorophenyl)-dimethylaminomethyl]-cyclohexylmethyl}-1-phenethyl-4,5-dihydro-1H-imidazole-4-carboxylic acid methyl ester], the inhibition at 1 µM is reported as 91%. COC(=O)C1(CCSC)N=CN(Cc2ccccc2)C1CC1CCC(C(CCc2ccccc2)N(C)C)CC1 (centres unmarked) [Example 145, 1-benzyl-5-[4-(1-dimethylamino-3-phenylpropyl)-cyclohexylmethyl]-4-(2-methylsulfanyl-ethyl)-4,5-dihydro-1H-imidazole-4-carboxylic acid methyl ester] showed an inhibition at 1 µM of 79%. With COC(=O)CCC1(C(=O)OC)N=CN(CCc2ccccc2)C1CC1CCC(C(c2ccc(Cl)cc2)N(C)C)CC1 (centres unmarked) [Example 94, 5-{4-[(4-chlorophenyl)-dimethylaminomethyl]-cyclohexylmethyl}-4-(2-methoxycarbonylethyl)-1-phenethyl-4,5-dihydro-1H-imidazole-4-carboxylic acid methyl ester] the inhibition at 1 µM was 97%. With COC(=O)C1(C)N=CN(C2CCCCC2)C1CC1CCC(C(CCc2ccccc2)N(C)C)CC1 (centres unmarked) [Example 110, 1-cyclohexyl-5-[4-(1-dimethylamino-3-phenylpropyl)-cyclohexylmethyl]-4-methyl-4,5-dihydro-1H-imidazole-4-carboxylic acid methyl ester] the inhibition at 1 µM was 67%. For CCCCC1(C(=O)OC)N=CN(C2CCCCC2)C1CC1CCC(C(c2ccc(Cl)cc2)N(C)C)CC1 (centres unmarked) [Example 19, 4-butyl-5-{4-[(4-chlorophenyl)-dimethylaminomethyl]-cyclohexylmethyl}-1-cyclohexyl-4,5-dihydro-1H-imidazole-4-carboxylic acid methyl ester], the inhibition at 1 µM was 96%. Work on COC(=O)C1(CC(C)C)N=CN(CCc2ccccc2)C1C1CCC(C(c2cccc(F)c2)N(C)C)CC1 (centres unmarked) [Example 37, 5-{4-[dimethylamino-(3-fluorophenyl)-methyl]-cyclohexyl}-4-isobutyl-1-phenethyl-4,5-dihydro-1H-imidazole-4-carboxylic acid methyl ester] yielded an inhibition at 1 µM of 93%. For CCCN1C=NC(CSCc2ccccc2)(C(=O)OC)C1CC1CCC(C(c2ccc(Cl)cc2)N(C)C)CC1 (centres unmarked) [Example 64, 4-benzylsulfanylmethyl-5-{4-[(4-chlorophenyl)-dimethylaminomethyl]-cyclohexylmethyl}-1-propyl-4,5-dihydro-1H-imidazole-4-carboxylic acid methyl ester], the inhibition at 1 µM was 98%. Work on CCCCN1C=NC(CCC(=O)OC)(C(=O)OC)C1C1CCC(C(c2ccc(Cl)cc2)N(C)C)CC1 (centres unmarked) [Example 68, 1-butyl-5-{4-[(4-chlorophenyl)-dimethylaminomethyl]-cyclohexyl}-4-(2-methoxycarbonylethyl)-4,5-dihydro-1H-imidazole-4-carboxylic acid methyl ester] yielded an inhibition at 1 µM of 90%. CCCCN1C=NC(CCSC)(C(=O)OC)C1CC1CCC(C(c2ccc(F)cc2)N(C)C)CC1 (centres unmarked) [Example 126, 1-butyl-5-{4-[dimethylamino-(4-fluorophenyl)-methyl]-cyclohexylmethyl}-4-(2-methylsulfanyl-ethyl)-4,5-dihydro-1H-imidazole-4-carboxylic acid methyl ester] was tested, and the inhibition at 1 µM was 98%.
